Source: article PMC11239005, “Preclinical studies of RA475, a guanidine-substituted spirocyclic candidate RPN13/ADRM1 inhibitor for treatment of ovarian cancer” (PLOS ONE, 2024)
Like-named read-outs stand apart in the source and are kept apart here.

Legend:
TC1 = test: MTT cytotoxicity assay, TC1; assay type: cell-based; conditions: TC-1, TC1, 72 h
Procedure: (§1) All cell lines were obtained from the American Type Culture Collection (ATCC) and cultured in the specified medium supplemented with 10% fetal bovine serum, 100 IU/mL penicillin, and 100 μg/mL streptomycin at 37°C in a humidified 5% CO2/95% air incubator. Synthesis of new compounds is described in S1 File, and >95% purity of RA475, Up284 and its analogs were confirmed by NMR and MS. To assess drug cytotoxicity, cells were seeded at 2,500 cells/well (10,000 cells/well for MM lines) in 100 μL medium in 96-well plate as triplicates and after 24 h treated with compounds for a further 72 h. To assess cytotoxicity, the cells were incubated for 2 h at 37°C according to the manufacturer’s protocol with the Thiazolyl Blue Tetrazolium Bromide (20 μL/well of 5 mg/mL stock solution in water) (Sigma, M5655) and A570 measured using a Benchmark Plus microplate spectrophotometer (BIO-RAD). IC50 was estimated using Graphpad Prism 7 software.

SKMEL2 = test: MTT cytotoxicity assay, SKMEL2; assay type: cell-based; conditions: Homo sapiens
Procedure: as §1

PEO4 = test: MTT cytotoxicity assay, PEO4; assay type: cell-based; conditions: Homo sapiens, PEO4, 72 h
Procedure: as §1
We elected to focus on RA475 and expanded the analysis in a larger panel of cell lines including those from common cancer types and normal tissues. […] This panel included another pair of cell lines isolated from another ovarian cancer patient with drug-resistant disease (PEO4) and pre-treatment (PEO1), and both were similarly sensitive to RA475.

HeLa = test: MTT cytotoxicity assay, HeLa; assay type: cell-based; conditions: Homo sapiens, 72 h
Procedure: as §1

4UbFL in ES2 cells = test: 4UbFL reporter assay, ES2; assay type: cell-based, human; conditions: 4 h; for 4UbFL stabilization, fold over DMSO: ES2, 1.25 μM; for 4UbFL bioluminescence, luminometer: ES2 stably expressing 4UbFL
Procedure: Sub-confluent cultures of cells were transfected with 4UbFL plasmid using TransIT 2020 reagent (Mirus Bio). Cells were seeded at 10,000 cells/well in 96-well plates 48 h post transfection, and incubated with compounds or vehicle (DMSO) at the doses and for the times indicated. Luciferase activity in cell lysate was determined with a luciferase assay kit (Promega) according to the manufacturer’s instructions. Bioluminescence was measured using a Glomax Multidetection system (Promega).
Fig 3 Impact of RA475 on proteasome function. […] Actin was used as loading control. […] C) 4T1 and HCC1806 cells stably expressing 4UbFL were treated with compounds at indicated doses for 4 h and imaged by IVIS200 after the addition of luciferin substrate (50 μL, 7mg/mL in PBS). D) Sub-confluent cultures of ES2 cells stably expressing 4UbFL were seeded at 10,000 cells/well in 96-well microtiter plates. At 18 h post transfection, cells were treated with compounds or vehicle (DMSO) at the doses indicated. After a 4 h incubation, the cells were lysed and the luciferase activity in each cell lysate was determined with a luciferase assay kit (Promega) according to the manufacturer’s instructions. Bioluminescence was measured by using a luminometer (Glomax Multidetection system, Promega) E) A patch was shaved of hair on one leg of CD-1 mice, and 10 μg 4UbFL plasmid in 20 μL of PBS was injected into the quadriceps femoralis muscle followed immediately by injection of the 2 Needle Array to 5 mm depth encompassing the injection site and square wave electroporation (ElectroSquarePorator 833, BTX-2 Needle array 5mm gap, Harvard apparatus) delivered as eight pulses at 106V for 20 ms with 200 ms intervals. One day post electroporation, mice were anesthetized with isoflurane, injected IP with luciferin (0.3 mg in 100 μL water) and optical imaging was performed to determine basal level luciferase expression. Images were acquired for 10 min with a Xenogen IVIS 200 (Caliper, Hopkinton, MA). Equally sized areas were analyzed using Living Image 2.20 software. Mice were imaged weekly during treatment. Mice were randomized into three groups (n = 5) and treated IP once with Vehicle (25% (w/v) β-Hydroxypropylcyclodextrin in water, Sigma Aldrich) alone, RA475 (40 mg/Kg) or Up284 (40 mg/Kg) and mice were imaged again at 4 h, 24 h, 48 h, 72 h and 96 h later. F) Same as in E but RA475 (40mg/Kg) and ixazomib (10mg/Kg, recommended dose) were delivered orally. Thick line indicates median measurements. P-values are results based on Wilcoxon rank sum test for pairwise comparisons to vehicle cohort at each time point with multiplicity adjustment.
Firefly Luciferase (FL) is a stable protein in cells, but when fused with four molecules of ubiquitin (4Ub) it is targeted for rapid degradation by proteasomes. […]

[1] = Tissue distribution in CD1 mice; assay type: in vivo, mouse; conditions: 24 h; for Concentration in brain: one IV dose 40 mg/kg
Procedure: For the stability studies and biodistribution studies, plasma or tissue homogenate (20 μL) was extracted with 100 μL of acetonitrile containing the internal standard RA413S (a structural analogue) at 10 ng/mL. Tissue homogenates were prepared at a concentration of 200 mg/mL in PBS. After vortex-mixing and centrifuging for 5 min at 2500 xg, 10 μL of the supernatant was injected into LC-MS/MS system. […] Mobile phase A was water containing 0.1% formic acid, and mobile phase B was acetonitrile containing 0.1% formic acid. The gradient started with mobile phase B at 20% and was held at 20% for 0.5 minutes with a flow rate of 0.3 mL/min, then increased to 100% over 0.5 minutes and held for 2.0 minutes, and finally returned back to 20% mobile phase B and allowed to equilibrate until 4.1minutes. An AB Sciex 5500 triple quadrupole mass spectrometer operated in positive electrospray ionization mode was used for the detection of RA475. The lower limit of quantitation (LLOQ) in plasma was 10 ng/mL.
In a separate experiment to assess drug distribution, CD1 mice were injected with one dose of RA475 (40 mg/kg, IV) and tissues collected after 4 h and 24 h. RA475 levels were analyzed in all major tissues (brain, colon, heart, kidney, liver, lung and spleen) by LC-MS/MS.
Fig 5 Tissue distribution of RA475 and Up284 in mice. Female CD1 mice (n = 3/drug) were treated with one IV dose of A) RA475 (40mg/kg) or B) Up284 (40mg/Kg) and euthanized after 24 h with collection of plasma and tissues including brain, colon, heart, kidney, liver, lung and spleen. RA475 and Up284 concentrations in tissue samples were analyzed by LC-MS/MS. TEXT PRINTED IN THE PICTURE: (A) RA475: RA475 Concentration (ng/mL or ng/g): 161 (Brain) | (B) Up284: Up284 Concentration (ng/mL or ng/g): 9214 (Brain)

Cl.Cl.N#Cc1ccc(/C=C2/C(=O)/C(=C/c3ccc(C#N)cc3)C23CCN(C(=N)N)CC3)cc1 [RA475, 1,3-bis((E)-4-cyanobenzylidene)-2-oxo-7-azaspiro[3.5]nonane-7-carboximidamide dihydrochloride]
IC50 (TC1): 0.217 µM
IC50 (SKMEL2; SK-MEL-2, 72 h): 0.156 µM
IC50 (PEO4): 0.26 µM
IC50 (HeLa): 0.213 µM
4UbFL stabilization, fold over DMSO (4UbFL in ES2 cells): > 20 fold
4UbFL bioluminescence, luminometer (4UbFL in ES2 cells): dose-dependent increase in bioluminescence
tissue accumulation ([1]; 40 mg/kg IV): accumulated primarily in kidneys and liver
Concentration in brain [1]: 161 ng/mL or ng/g

N#Cc1ccc(/C=C2/C(=O)/C(=C/c3ccc(C#N)cc3)C23CCNCC3)cc1 [Up284, reference compound]
IC50 (TC1): 0.14 µM
IC50 (SKMEL2; SK-MEL-2, SKMEL2, 72 h, MTT, read-out: IC50): 0.07 µM
IC50 (PEO4): 0.061 µM
IC50 (HeLa): 0.04 µM
4UbFL stabilization, fold over DMSO (4UbFL in ES2 cells): > 20 fold
4UbFL bioluminescence, luminometer (4UbFL in ES2 cells): dose-dependent increase in bioluminescence
Concentration in brain [1]: 9214 ng/mL or ng/g
